Measurements: US7897182B2, “Composition comprising bamboo extract and the compounds isolated therefrom showing treating and preventing activity for inflammatory and blood circulation disease” (Unigen, Inc., priority 2003, dated 2011)
≈ marks a conversion by molar mass, not a printed value.

Experiments:
NO production = assay: Inhibition of NO production in LPS-treated RAW 264.7 cells (Griess reagent); type: cell-based, Murine
Description: Murine macrophage cell line RAW 264.7 cell (ATCC, Rockville, Md., USA) were grown in DMEM (Gibco BRL Co., Ltd., USA), supplemented with 2.0 mM L-arginine, 100 μg/ml penicillin-streptomycin and 10% fetal bovine serum at 37° C. in 5% CO2 and 95% air condition in humidified incubator.
To test the inhibiting activity of bamboo extract and the compound isolated therefrom on nitric oxide (NO), which is one of inflammatory factors, the increase of NO was determined in the cells treated with extract or compound of the present invention.
200 μl of RAW 264.7 cells (1×10^6 cells/ml) were seeded onto each well of 96-well microtiter plate (Nunc, Sweden) and incubated for 3 hours in DMEM media containing 10% FBS. […]
And then 100 μl of cell supernatant of each well was transferred to new 96 well plate and 50 μl of Griess reagent (0.1% N-(1-naphtyl)ethylenediamine 2HCl, 1% sulfanilamide in 5% conc. H3PO4 in H2O) was added thereto followed by incubating for 10 mins at R.T. The absorbance was measured at 540 or 550 nm using ELISA reader (Power wave-XS, Bio-Tek, USA).

HUVEC = assay: Cell toxicity test, modified MTT method, HUVEC; type: cell-based, Human
Description: The cell toxicity of tricin compound of Example 5 was tested using modified MTT method (J. Immunological Methods, 119, pp 203-210, 1989).
200 μl of HUVEC (2×10^5 cells/ml) on flat bottom 96-well microtiter plates (Nunc, Sweden) were treated with tricin prepared in various concentrations and cultured at 37° C. for 24 hours.
50 μl of MTT solution (1 mg/ml) was added to each well and incubated at 37° C. for 4 hours. And then supernatant was removed.
To detect formazan crystal, 100 μl of DMSO was also added to each well and the colorigenic analysis was performed at 550 nm using microplate reader (Power wave-XS, Bio-Tek, USA).

eNOS gene expression = assay: eNOS mRNA expression in HUVEC (quantitative PCR); type: cell-based, Human; details: for mRNA expression (fold), eNOS: HUVEC, control = 1
Description: (§1) RNA was isolated from HUVEC cell by Rneasy mini kit (cat#74103, Qiagen Co.) according to the manufacturer's instruction. And RT-PCT reaction was performed by using quantitative PCR method (SDS 7700, Applied biosystems Co., U.S.A.).
(§2) 5 μl of cDNA product obtained in the reverse transcription (RT) was aliquoted into each well of 96-well plate and then the mixture containing 5.6 mM MgCl2, 1×PCR buffer, 2 mM dNTP, 0.05% gelatin, 1 μM of a pair of each target gene primer or 0.16 μM of house keeping gene primer, 0.5 μM of target gene probe or 0.025 μM of housekeeping gene probe, 1.25 U of Taq polymerase was added thereto for polymerase chain reaction (PCR) (50° C. 2 min, 95° C. 10 min, 95° C. 15 sec, 60° C. 1 min, 40 cycles).
(§3) As the result, final cT value was read and calculated.

VEGF gene expression = assay: VEGF mRNA expression in HUVEC (quantitative PCR); type: cell-based, Human; details: for mRNA expression (fold), VEGF: HUVEC, control = 1
Description: as §1, §2, §3

u-PA gene expression = assay: u-PA mRNA expression in HUVEC (quantitative PCR); type: cell-based, Human; details: for mRNA expression (fold), u-PA: HUVEC, control = 1
Description: as §1, §2, §3

RAW 264.7 cells = assay: Cell viability at the tricin concentrations of the NO test (Table 9)
iNOS gene expression = iNOS gene expression in LPS-treated RAW 264.7 cells (RT-PCR); type: cell-based, Murine; details: for Inhibition of Gene expression (%) (iNOS): LPS, 24 hours
Description: To investigate the inhibiting effect on gene expression, the extract or compound of the present invention was treated to the cell and the RNA extracted therefrom was used in the RT-PCR to evaluate the quantitative gene expression. […] And RNA was extracted by conventional extraction method using Trizol reagent (Gibco BRL) to use in the following reverse transcription-polymerase chain reaction. RT-PCR was performed according to the RT reaction (25° C. 10 min, 48° C. 30 min, 95° C. 5 min, 4° C. 10 min; 1 cycle) and subsequent PCR (50° C. 2 min, 95° C. 10 min, 95° C. 15 sec, 60° C. 1 min, 40 cycles) method well known in the art. As an internal control, 18S ribosomal RNA was used.

[1] = tested on: LDL receptor defected mouse; assay: Blood lipid in LDL defected mouse on high fat diet; type: in vivo; details: lovastatin 4 mg/kg oral
Description: (§4) Eight-weeks old male LDL receptor defected mouse accumulated to high fat feed were divided into two dose administration groups and one high dosing group of which group consist of six mice per group, Injectable distilled water was used as a negative control group, lovastain well known to be as an atheriosclerosis treating agent was administrated in an amount of 4 mg/kg per body weight as a positive control group, Bamboo was administrated to two treatment group in an amount of 50 and 100 mg/kg per body weight respectively, and one high dosing treatment group in an amount of 500 mg/kg per body weight for 20 weeks by way of compulsory oral administration after weighing the body weight twice a day (See Table 6).
And then blood plasma was isolated by centrifugation at the speed of 11,000 g for 10 minutes and left alone at −70° C. before use. The value of blood lipid was determined by three categories i.e., TC (Total cholesterol), HDL-C (High-density lipoprotein cholesterol) and TG (Triglycerides) at KRIBB in Korea.

[2] = tested on: LDL receptor defected mouse; assay: Arteriosclerosis lesion area (Oil red O, aortic valve) in LDL defected mouse; type: in vivo; details: positive control, lovastatin 4 mg/kg
Description: During the experiment, the environment of the cage was maintained to the temperature of 23±2° C. and the relative humidity of […] under the artificial lamp for 12 hours, and less than five mice were bred in each mouse cage providing with free access to water (disinfected distilled water) and normal fatty feed (Harlan 2018S, Indianapolis USA).
as §4, with “6). […]” for “6).”
The calculation of lesion area was performed by staining the lesion formed at the position between 3rd cervical […] and aortic valve and photocopying and then the lesion area was calculated by using computer-assisted morphometry (TDI microscope Image Analyzer, USA) comparing with control group.

[3] = Mus musculus, RAW264.7, read-out: NO inhibition rate (%)

SMILES: COc1cc(-c2cc(=O)c3c(O)cc(O)cc3o2)cc(OC)c1O [tricin]
- NO inhibition, in words (NO production; 25, 12.5 and 6.5 μg/ml): strong NO inhibition rate
- inhibition at 1.625 µg/mL (NO production; [3]): 25.9 ± 0.006%
- inhibition at 3.25 µg/mL (NO production; [3]): 38.1 ± 0.005%
- inhibition at 6.5 µg/mL (NO production; [3]): 52 ± 0.015%
- inhibition at 25 µg/mL (NO production; [3]): 74.6 ± 0.009%
- inhibition at 50 µg/mL (NO production; [3]): 49.7 ± 0.007%
- inhibition at 12.5 µg/mL (NO production; Mus musculus, RAW264.7, tricin 12.5 μg/ml, read-out: NO inhibition rate (%)): 71.2 ± 0.003%
- cellular toxicity (HUVEC; HUVEC, 5 μg/ml, 24 hours, MTT): 51%
- expression of eNOS in HUVEC, in words (eNOS gene expression): increased
- mRNA expression (fold), eNOS (eNOS gene expression; tricin 0.5 μg/ml): 3.024 fold
- mRNA expression (fold), eNOS (eNOS gene expression; tricin 1.0 μg/ml): 4.711 fold
- mRNA expression (fold), eNOS (eNOS gene expression; tricin 5.0 μg/ml): 0.452 fold
- expression of VEGF in HUVEC, in words (VEGF gene expression): increased
- mRNA expression (fold), VEGF (VEGF gene expression; tricin 0.5 μg/ml): 2.046 fold
- mRNA expression (fold), VEGF (VEGF gene expression; tricin 1.0 μg/ml): 1.469 fold
- mRNA expression (fold), VEGF (VEGF gene expression; tricin 5.0 μg/ml): 1.545 fold
- expression of u-PA gene in HUVEC, in words (u-PA gene expression): increased
- mRNA expression (fold), u-PA (u-PA gene expression; tricin 0.5 μg/ml): 1.619 fold
- mRNA expression (fold), u-PA (u-PA gene expression; tricin 1.0 μg/ml): 1.103 fold
- mRNA expression (fold), u-PA (u-PA gene expression; tricin 5.0 μg/ml): 2.962 fold
- toxicity at the active concentrations, in words (RAW 264.7 cells; 25, 12.5 and 6.5 μg/ml): no toxicity
- Cell viability (%) (RAW 264.7 cells; tricin 1.625 μg/ml): 126%
- Cell viability (%) (RAW 264.7 cells; tricin 3.25 μg/ml): 99%
- Cell viability (%) (RAW 264.7 cells; tricin 6.5 μg/ml): 96%
- Cell viability (%) (RAW 264.7 cells; tricin 12.5 μg/ml): 92%
- Cell viability (%) (RAW 264.7 cells; tricin 25 μg/ml): 80%
- Cell viability (%) (RAW 264.7 cells; tricin 50 μg/ml): 49%

SMILES: COc1cc(/C=C/C(=O)CC(=O)/C=C/c2ccc(O)c(OC)c2)ccc1O [Curcumin, curcumin]
- Comparative iNOS expression (% of control, DMSO) (iNOS gene expression; 0.032 μg/ml): 80.5 % of control
- Inhibition of Gene expression (%) (iNOS) (iNOS gene expression; 0.032 μg/ml): 40%
- Comparative iNOS expression (% of control, DMSO) (iNOS gene expression; 0.16 μg/ml): 75.7 % of control
- Inhibition of Gene expression (%) (iNOS) (iNOS gene expression; 0.16 μg/ml): 40%
- Comparative iNOS expression (% of control, DMSO) (iNOS gene expression; 0.8 μg/ml): 64.4 % of control
- Inhibition of Gene expression (%) (iNOS) (iNOS gene expression; 0.8 μg/ml): 40%
- Comparative iNOS expression (% of control, DMSO) (iNOS gene expression; 4 μg/ml): 49.9 % of control
- Inhibition of Gene expression (%) (iNOS) (iNOS gene expression; 4 μg/ml): 90%
- Inhibition of Gene expression (%) (iNOS) (iNOS gene expression; 12.5 μg/ml): 90%
- Comparative iNOS expression (% of control, DMSO) (iNOS gene expression; 20 μg/ml): 1.3 % of control
- IC50 (iNOS gene expression; Mus musculus, RAW264.7, calculated from the expression data, read-out: IC50 (μg/ml) on iNOS gene expression): 5.3 µg/mL (≈ 14.4 µM)
- concentration at which iNOS gene expression is inhibited by 90% (iNOS gene expression; real time-gene expression analysis): 4 µg/mL

SMILES: CC[C@H](C)C(=O)O[C@H]1C[C@@H](C)C=C2C=C[C@H](C)[C@H](CC[C@@H]3C[C@@H](O)CC(=O)O3)[C@H]21 [Lovastatin, lovastatin]
- HDL-C [1]: 25.00 ± 7.07
- LDL-C [1]: 3485.00 ± 304.06
- TC [1]: 3750.00 ± 42.43
- TG [1]: 300.00 ± 14.14
- inhibition of the formation of arteriosclerosis compared with control group [2]: about 47%

SMILES: O=C(O)/C=C/c1ccc(O)cc1 [p-coumaric acid]
- cellular toxicity, in words (HUVEC): no cellular toxicity
